Tested on: 855422-203-R-J1-PDC spheroids with HUVEC/MSC, viability
Test: Anticancer human tumor 855422-203-R-J1-PDC patient-derived bladder carcinoma cell line growth inhibition [PI3K]
Conditions: for IC50: curve of first compound; for viability, T/C: stronger effect = lower value
Method in brief: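 Tumor cells were combined with HUVEC and MSCs into spheroids, then dosed with PI3K-inhibitor combinations over half-log ranges capped near clinical Cmax or 10 microM.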

[1] = second compound 0.00316 µM, first compound 0.0316 µM
[2] = second compound 0.00316 µM, first compound 0.1 µM
[3] = second compound 0.00316 µM, first compound 0.316 µM
[4] = second compound 0.00316 µM, first compound 1 µM
[5] = second compound 0.00316 µM, first compound 3.16 µM
[6] = second compound 0.00316 µM, first compound 10 µM
[7] = second compound 0.01 µM, first compound 0.0316 µM
[8] = second compound 0.01 µM, first compound 0.1 µM
[9] = second compound 0.01 µM, first compound 0.316 µM
[10] = second compound 0.01 µM, first compound 1 µM
[11] = second compound 0.01 µM, first compound 3.16 µM
[12] = second compound 0.01 µM, first compound 10 µM
[13] = second compound 0.0316 µM, first compound 0.0316 µM
[14] = second compound 0.0316 µM, first compound 0.1 µM
[15] = second compound 0.0316 µM, first compound 0.316 µM
[16] = second compound 0.0316 µM, first compound 1 µM
[17] = second compound 0.0316 µM, first compound 3.16 µM
[18] = second compound 0.0316 µM, first compound 10 µM
[19] = second compound 0.1 µM, first compound 0.0316 µM
[20] = second compound 0.1 µM, first compound 0.1 µM
[21] = second compound 0.1 µM, first compound 0.316 µM
[22] = second compound 0.1 µM, first compound 1 µM
[23] = second compound 0.1 µM, first compound 3.16 µM
[24] = second compound 0.1 µM, first compound 10 µM
[25] = second compound 0.316 µM, first compound 0.0316 µM
[26] = second compound 0.316 µM, first compound 0.1 µM
[27] = second compound 0.316 µM, first compound 0.316 µM
[28] = second compound 0.316 µM, first compound 1 µM
[29] = second compound 0.316 µM, first compound 3.16 µM
[30] = second compound 0.316 µM, first compound 10 µM
[31] = second compound 1 µM, first compound 0.0316 µM
[32] = second compound 1 µM, first compound 0.1 µM
[33] = second compound 1 µM, first compound 0.316 µM
[34] = second compound 1 µM, first compound 1 µM
[35] = second compound 1 µM, first compound 3.16 µM
[36] = second compound 1 µM, first compound 10 µM
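Also: agents incubated with spheroids for one week before read-out.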
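For viability, T/C in this document: 100% = DMSO vehicle-treated control wells.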

C[C@@H](NC(=O)c1ncnc(N)c1Cl)c1ncc(C(=O)Nc2cc(C(F)(F)F)c(Cl)cn2)s1 + COc1c(OCCCN2CCOCC2)ccc2c3n(c(=NC(=O)c4cnc(N)nc4)nc12)CCN3 was tested, and the IC50 (second compound 0.00316 µM) was > 10000 nM, the IC50 (second compound 0.01 µM) was > 10000 nM and the IC50 (second compound 0.0316 µM) was > 10000 nM. The IC50 (second compound 0.1 µM) was < 31.6 nM, the IC50 (second compound 0.316 µM) was < 31.6 nM and the IC50 (second compound 1 µM) was < 31.6 nM. The viability, T/C [1] was 93.8%, the viability, T/C [2] was 91.3% and the viability, T/C [3] was 104%. The viability, T/C [4] was 97.4%, the viability, T/C [5] was 109% and the viability, T/C [6] was 113%. For the same compound, the viability, T/C [7] was 80%, the viability, T/C [8] was 85.2% and the viability, T/C [9] was 88.5%. The viability, T/C [10] was 89.4%, the viability, T/C [11] was 108% and the viability, T/C [12] was 83%. The viability, T/C [13] was 59.4%, the viability, T/C [14] was 69.3% and the viability, T/C [15] was 68.8%. It also gave a viability, T/C [16] of 61.6%, a viability, T/C [17] of 71.3% and a viability, T/C [18] of 36.7%. For the same compound, the viability, T/C [19] was 35.9%, the viability, T/C [20] was 38.3% and the viability, T/C [21] was 33.7%. For the same compound, the viability, T/C [22] was 35.9%, the viability, T/C [23] was 27.8% and the viability, T/C [24] was 16.2%. The viability, T/C [25] was 13.4%, the viability, T/C [26] was 12.5% and the viability, T/C [27] was 12.5%. For the same compound, the viability, T/C [28] was 13.7%, the viability, T/C [29] was 11.2% and the viability, T/C [30] was 5.99%. The viability, T/C [31] was 4.22%, the viability, T/C [32] was 7.01% and the viability, T/C [33] was 5.73%. The viability, T/C [34] was 4.13%, the viability, T/C [35] was 3.47% and the viability, T/C [36] was 1.26%.
Cn1ncc(Cl)c1-c1cc(C(=O)NC(CN)Cc2cccc(F)c2)sc1Cl (stereo unspecified) + COc1c(OCCCN2CCOCC2)ccc2c3n(c(=NC(=O)c4cnc(N)nc4)nc12)CCN3 showed an IC50 (second compound 0.00316 µM) of 728 nM, an IC50 (second compound 0.01 µM) of 624 nM and an IC50 (second compound 0.0316 µM) of 178 nM. For the same compound, the IC50 (second compound 0.1 µM) was < 31.6 nM, the IC50 (second compound 0.316 µM) was < 31.6 nM and the IC50 (second compound 1 µM) was < 31.6 nM. It also gave a viability, T/C [1] of 88.5%, a viability, T/C [2] of 73.7% and a viability, T/C [3] of 63.2%. The viability, T/C [4] was 45.5%, the viability, T/C [5] was 26.9% and the viability, T/C [6] was 6.73%. It also gave a viability, T/C [7] of 77.8%, a viability, T/C [8] of 69.8% and a viability, T/C [9] of 62%. For the same compound, the viability, T/C [10] was 42.7%, the viability, T/C [11] was 19.6% and the viability, T/C [12] was 5.83%. It also gave a viability, T/C [13] of 60.7%, a viability, T/C [14] of 54.4% and a viability, T/C [15] of 45.2%. The viability, T/C [16] was 29.4%, the viability, T/C [17] was 13% and the viability, T/C [18] was 3.13%. The viability, T/C [19] was 27.6%, the viability, T/C [20] was 27.3% and the viability, T/C [21] was 19.7%. For the same compound, the viability, T/C [22] was 15.4%, the viability, T/C [23] was 7.63% and the viability, T/C [24] was 0.88%. For the same compound, the viability, T/C [25] was 8.42%, the viability, T/C [26] was 7.12% and the viability, T/C [27] was 8.39%. It also gave a viability, T/C [28] of 7.12%, a viability, T/C [29] of 4.22% and a viability, T/C [30] of 0.34%. The viability, T/C [31] was 3.34%, the viability, T/C [32] was 4.22% and the viability, T/C [33] was 3.37%. It also gave a viability, T/C [34] of 4.04%, a viability, T/C [35] of 1.54% and a viability, T/C [36] of 1.32%.
For Cn1ncnc1[C@H]1c2n[nH]c(=O)c3cc(F)cc(c23)N[C@@H]1c1ccc(F)cc1 + COc1c(OCCCN2CCOCC2)ccc2c3n(c(=NC(=O)c4cnc(N)nc4)nc12)CCN3, the IC50 (second compound 0.00316 µM) was > 100 nM, the IC50 (second compound 0.01 µM) was > 100 nM and the IC50 (second compound 0.0316 µM) was > 100 nM. The IC50 (second compound 0.1 µM) was < 0.316 nM, the IC50 (second compound 0.316 µM) was < 0.316 nM and the IC50 (second compound 1 µM) was < 0.316 nM. The viability, T/C (second compound 0.00316 µM, first compound 0.000316 µM) was 97.2%, the viability, T/C (second compound 0.00316 µM, first compound 0.001 µM) was 98% and the viability, T/C (second compound 0.00316 µM, first compound 0.00316 µM) was 98.6%. The viability, T/C (second compound 0.00316 µM, first compound 0.01 µM) was 90.5%, the viability, T/C [1] was 90.8% and the viability, T/C [2] was 91.7%. The viability, T/C (second compound 0.01 µM, first compound 0.000316 µM) was 88.8%, the viability, T/C (second compound 0.01 µM, first compound 0.001 µM) was 80.7% and the viability, T/C (second compound 0.01 µM, first compound 0.00316 µM) was 78%. It also gave a viability, T/C (second compound 0.01 µM, first compound 0.01 µM) of 97.2%, a viability, T/C [7] of 94.6% and a viability, T/C [8] of 92.2%. It also gave a viability, T/C (second compound 0.0316 µM, first compound 0.000316 µM) of 65.5%, a viability, T/C (second compound 0.0316 µM, first compound 0.001 µM) of 62.2% and a viability, T/C (second compound 0.0316 µM, first compound 0.00316 µM) of 62.2%. The viability, T/C (second compound 0.0316 µM, first compound 0.01 µM) was 52.7%, the viability, T/C [13] was 52.7% and the viability, T/C [14] was 53.1%. For the same compound, the viability, T/C (second compound 0.1 µM, first compound 0.000316 µM) was 24.2%, the viability, T/C (second compound 0.1 µM, first compound 0.001 µM) was 25.9% and the viability, T/C (second compound 0.1 µM, first compound 0.00316 µM) was 29.1%. It also gave a viability, T/C (second compound 0.1 µM, first compound 0.01 µM) of 27.5%, a viability, T/C [19] of 22.9% and a viability, T/C [20] of 24.5%. The viability, T/C (second compound 0.316 µM, first compound 0.000316 µM) was 9.77%, the viability, T/C (second compound 0.316 µM, first compound 0.001 µM) was 8.64% and the viability, T/C (second compound 0.316 µM, first compound 0.00316 µM) was 8.11%. It also gave a viability, T/C (second compound 0.316 µM, first compound 0.01 µM) of 8.04%, a viability, T/C [25] of 7.3% and a viability, T/C [26] of 8.75%. The viability, T/C (second compound 1 µM, first compound 0.000316 µM) was 4.95%, the viability, T/C (second compound 1 µM, first compound 0.001 µM) was 3.74% and the viability, T/C (second compound 1 µM, first compound 0.00316 µM) was 3.02%. It also gave a viability, T/C (second compound 1 µM, first compound 0.01 µM) of 3.29%, a viability, T/C [31] of 4.31% and a viability, T/C [32] of 3.2%.

— PubChem BioAssay AID1963967 (Molecular Pharmacology Branch, DTP, NCI, 2024)
